In patent US6423834B1, “KDO aldolase and condensation reactions employed therewith” (The Scripps Research Institute, priority 1992, dated 2002):
Where two headings read alike, the source gives them in different places.

Assays:
[1] = system: KDO aldolase (EC 4.1.2.23); assay: KDO aldolase-catalyzed aldol condensation of sugars with pyruvate (kinetic and relative rate measurements via remaining pyruvate); format: biochemical, Aureobacterium barkerei strain KDO-37-2; conditions: for rel. V (relative rate of aldol condensation): pyruvate 10 mM, sugar 0.5 M, 0.1 M phosphate pH 7.5, 37° C., relative to D-arabinose
From the text: (§1) Partially purified KDO aldolase simply obtained by ammonium sulfate precipitation (8.0 U/mL; 0.19 U/mg for degradation of KDO) was used in substrate-specificity studies reported herein. The KDO aldolase employed for the kinetic analysis reported herein, was further purified via DEAE sepharose and phenyl sepharose column chromatography to a specific activity of 5.7 U/mg. […] The enzymatic reaction favors the cleavage of KDO, with the equilibrium constant Keq=[pyruvate][arabinose]/KDO=9×10^−2M.
The rates for aldolase-catalyzed reactions were obtained by measuring the amount of remaining pyruvate, according the method of Kim (supra). The reactions were carried out in 0.1 M phosphate buffer (pH 7.5) containing: varied concentrations of pyruvate, 2.0, 3.33, 5, and 10 mM; varied concentrations of D-arabinose, 0.2, 0.25, 0.33, and 0.50 M in 0.5 mL of solution. Each solution was incubated at 37° C. Periodically, a small aliquot (25-100 μL) was withdrawn and mixed with an assay solution (1.4 mL) containing 0.1 M phosphate (pH 7.5) buffer, 0.3 mM NADH, and 20-30 U of L-lactate dehydrogenase. The decrease in absorbance at 340 nm was measured and converted into the amount of the unreacted pyruvate using 6220 M^−1cm^−1 for the molecular absorbance of NADH. The kinetic parameters were obtained from the Lineweaver-Burk plots.
For the relative rate measurements, the concentration of pyruvate (fluoropyruvate) and sugar were fixed at 10 mM and 0.5 M, respectively. Other conditions were the same as above.

KDO aldolase [2] = conditions: enzyme from E. coli; cited from earlier work
KDO aldolase [3] = conditions: enzyme from Aerobacter cloacae; cited from earlier work
[4] = system: KDO aldolase (EC 4.1.2.23); assay: KDO aldolase degradation (cleavage) of KDO; format: biochemical, Aureobacterium barkerei strain KDO-37-2; conditions: read-out: Km in the course of degradation
Description: It is disclosed herein that the Gram-positive bacterium Aureobacterium barkerei strain KDO-37-2 can be induced to contain high levels of KDO aldolase. The aldolase activity from this source was assayed according to Aminoff's method (Biochem. J. 1961, 81, 384). Two liters of culture contained 10.2 U based on the degradation of KDO. This KDO activity is 4 times and 8 times higher than the corresponding KDO activity from Escherichia coli K-12 and Aerobacter cloacae, respectively, as reported by Gharambor (supra).
as §1
With one slight modification, the incubation was carried out according to the procedure reported by Gharambor (supra). […] The enzyme activity was determined to be 1.45 U/mL for the degradation of KDO according to the method of Aminoff (Biochem. J. 1961, 81, 384). […]

[5] = Proportion of β-isomer by comparing 1H NMR spectra; format: physicochemical
Description: Finally, the aldol reaction with an unnatural sugar containing a fluorine atom was conducted to give 18 (19% of 19). By comparing the ^1H NMR spectra, the proportion of the β-isomer (10.71) of 18 was ca. 1.5 times higher than that of KDO (6.9%), probably due to the absence of furanose and 1<<5 lactone forms. […] (Kohlbrenner, W. E. and Fesik, S. W., J. Biol. Chem. 1985, 260, 14695.) We therefore synthesized 18 in a larger scale by combining the use of KDO aldolase and pyruvate decarboxylase, which made the workup procedure much easier.

O=CC[C@H](O)[C@H](O)CO [2-deoxy-D-ribose]
rel. V (relative rate of aldol condensation) [1]: 71%

O=C[C@@H](O)[C@H](O)[C@H](O)[C@H](O)CO [D-altrose]
rel. V (relative rate of aldol condensation) [1]: 25%

O=C[C@@H](O)[C@H](O)[C@H](O)CO [D-arabinose, reference compound]
Vmax ([1]; condensation of D-arabinose with pyruvate, enzyme purified to 5.7 U/mg): 0.73 U/mg

O=C[C@H](O)[C@H](O)[C@H](O)CO [D-ribose]
rel. V (relative rate of aldol condensation) [1]: 72%
rel. V (KDO aldolase [2]): < 5%
rel. V (KDO aldolase [3]): < 5%

O=C(O)C(=O)C[C@@H](O)[C@@H](O)[C@H](O)[C@H](O)CO [KDO, 3-deoxy-D-manno-2-octulosonic acid]
Km [4]: 6 mM
proportion of the β-isomer [5]: 6.9%

C[C@H](O)[C@@H](O)[C@@H](O)[C@H](O)C=O [L-fucose]
rel. V (relative rate of aldol condensation) [1]: rate not detectable

O=C(O)C(=O)CF [fluoropyruvate]
accepted as substrate for the condensation [1]: neither fluoropyruvate nor ketohexose was accepted
